Experimental findings from PubChem BioAssay (NCI) are described below.

SMILES strings stand for the structures.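 Five concentrations, 48 hours, 96-well plates. GI50 marks 50% less growth. The concentration for full growth arrest is given as TGI.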

Some test systems named below: A498 renal; HOP-62 NSCLC; M14 melanoma; NCI-H522 lung; OVCAR-4 ovarian; OVCAR-8 ovarian; SF-295 CNS; SK-MEL-2 melanoma.
Common to all, as to assay: NCI-60 cell line screen, 48 h

In the case of `Cc1cc(=O)oc2ccc(OC/C=C3\CCC(=O)O3)cc12`, the GI50 in the test with A498 renal is 12300 nM; in the test on HOP-62 NSCLC, 13500 nM; in the test with M14 melanoma, 1750 nM; in the test on NCI-H522 lung it was 1650 nM; in the test on OVCAR-4 ovarian, 1210 nM; with OVCAR-8 ovarian it was 10 µM. For the same molecule, the GI50 in the test with SF-295 CNS was 15300 nM; in the test with SK-MEL-2 melanoma, 10.7 µM. The TGI came out at 50.6 µM in the test with A498 renal; 29.9 µM in the test on HOP-62 NSCLC; 5.37 µM with M14 melanoma; 3.57 µM in the test with NCI-H522 lung; 3.13 µM with OVCAR-4 ovarian; 25 µM in the test on OVCAR-8 ovarian. Further, the TGI with SF-295 CNS was found to be 41.9 µM; in the test on SK-MEL-2 melanoma it was 30.6 µM.

Regarding `COc1cnc2c(c1)C(=O)c1c-2n(CCCNC2=NCCS2)c(=O)c2cc(F)ccc12`, the GI50 in the test with A498 renal was 264 nM; in the test on HOP-62 NSCLC, 59.5 nM; in the test with M14 melanoma, 170 nM; with NCI-H522 lung it was 38.1 nM; in the test with OVCAR-4 ovarian, 463 nM; in the test with OVCAR-8 ovarian, 0.132 µM. The GI50 was 51.8 nM in the test on SF-295 CNS and 15.8 µM in the test with SK-MEL-2 melanoma. Moreover, the TGI in the test on A498 renal worked out at 1.63 µM; in the test with HOP-62 NSCLC it was 2.6 µM; with M14 melanoma it was 1.32 µM; in the test with NCI-H522 lung it was 1.28 µM; in the test with OVCAR-4 ovarian it was 2.36 µM; in the test on OVCAR-8 ovarian it was 4.72 µM. Also, the values for the TGI with SF-295 CNS and in the test with SK-MEL-2 melanoma were 0.891 µM and 32.7 µM, respectively.

`Cn1cc(/C=C\[N+](=O)[O-])c2ccccc21`: the GI50 in the test with A498 renal was 3360 nM; with HOP-62 NSCLC it was > 100000 nM; in the test on M14 melanoma, 37100 nM; in the test with NCI-H522 lung, > 100000 nM; in the test with OVCAR-8 ovarian, 26.9 µM; in the test with SF-295 CNS it was 52900 nM. Also, the GI50 in the test with SK-MEL-2 melanoma was > 100 µM. Besides, the TGI was 7.39 µM in the test with A498 renal; > 100 µM with HOP-62 NSCLC; > 100 µM in the test with M14 melanoma; > 100 µM in the test with NCI-H522 lung; 86.1 µM with OVCAR-8 ovarian; > 100 µM in the test on SF-295 CNS. Also, in the test on SK-MEL-2 melanoma, the TGI was > 100 µM.

Turning to `O=C1Nc2ccc(Cl)cc2/C1=C\c1c(-c2ccc(Cl)cc2)nc2sc(C3CC3)nn12`, the GI50 in the test on A498 renal is 1050 nM; in the test on HOP-62 NSCLC, 1750 nM; with M14 melanoma, 5770 nM; in the test on NCI-H522 lung it was 4500 nM; in the test with OVCAR-4 ovarian, 1960 nM; in the test with OVCAR-8 ovarian it was 3.12 µM. Besides, the GI50 in the test on SF-295 CNS was 2230 nM; in the test on SK-MEL-2 melanoma, 4.9 µM. Further, the TGI with A498 renal is 6.42 µM; in the test with HOP-62 NSCLC, 4.21 µM; with M14 melanoma, 21.8 µM; in the test with NCI-H522 lung, 26.3 µM; in the test on OVCAR-4 ovarian, 5.16 µM; in the test with OVCAR-8 ovarian, 11.5 µM. Also, the TGI with SF-295 CNS was 6.89 µM; with SK-MEL-2 melanoma, 19.8 µM.

As to `Cc1ccc(CNc2ccc(Br)cc2)cc1`, the TGI in the test with A498 renal is > 100 µM; with HOP-62 NSCLC it was > 100 µM; in the test on M14 melanoma, > 100 µM; with NCI-H522 lung, 43.9 µM; in the test with OVCAR-8 ovarian it was 65.3 µM; in the test on SF-295 CNS, > 100 µM.

In the case of `CO[C@H]1C[C@@H]2CC[C@@H](C)[C@@](O)(O2)C(=O)C(=O)N2CCCC[C@H]2C(=O)O[C@H]([C@H](C)C[C@@H]2CC[C@@H](OC(=O)C(C)(CO)CO)[C@H](OC)C2)CC(=O)[C@H](C)/C=C(\C)[C@@H](O)[C@@H](OC)C(=O)[C@H](C)C[C@H](C)\C=C/C=C/C=C/1C`, the GI50 is 1.87 nM in the test on A498 renal; 14.7 nM in the test on HOP-62 NSCLC; > 6060 nM with M14 melanoma; 444 nM with NCI-H522 lung; < 1 nM in the test on OVCAR-4 ovarian; < 1 nM in the test on SF-295 CNS. Also, the GI50 in the test with SK-MEL-2 melanoma is 1.68 µM. The TGI in the test with HOP-62 NSCLC, with M14 melanoma, with NCI-H522 lung, in the test on OVCAR-4 ovarian, with OVCAR-8 ovarian and with SF-295 CNS was > 10 µM in each case. Moreover, the TGI with SK-MEL-2 melanoma is > 10 µM.

Take `Clc1nccc2c(-c3csc(-c4c[nH]c5ccc(Br)cc45)n3)c[nH]c12`: the GI50 was 1560 nM in the test with A498 renal; 2110 nM with HOP-62 NSCLC; 2220 nM in the test on M14 melanoma; 2280 nM in the test on NCI-H522 lung; 3250 nM in the test on OVCAR-4 ovarian; 3.65 µM in the test on OVCAR-8 ovarian. The GI50 in the test on SF-295 CNS was 2480 nM; with SK-MEL-2 melanoma it was 4.09 µM. Also, the TGI with A498 renal turned out to be 4.84 µM; in the test on HOP-62 NSCLC it was 7.24 µM; in the test with M14 melanoma, 5.62 µM; with NCI-H522 lung, 6.86 µM; with OVCAR-4 ovarian, 15.9 µM; with OVCAR-8 ovarian, 16.2 µM. In addition, the TGI in the test with SF-295 CNS is 5.61 µM; in the test with SK-MEL-2 melanoma, 16.4 µM.

Turning to `Oc1ccc(Cl)cc1C(c1cc(Cl)ccc1O)C(Cl)(Cl)Cl`, the GI50 is 1670 nM with A498 renal; 1700 nM in the test on HOP-62 NSCLC; 1780 nM in the test on M14 melanoma; 1870 nM with NCI-H522 lung; 2710 nM in the test on OVCAR-4 ovarian; 2.89 µM in the test with OVCAR-8 ovarian. The GI50 with SF-295 CNS is 1970 nM; in the test with SK-MEL-2 melanoma, 2.12 µM. Also, the TGI with A498 renal was 3.53 µM; in the test with HOP-62 NSCLC it was 3.64 µM; with M14 melanoma it was 3.62 µM; with NCI-H522 lung, 5.44 µM; in the test on OVCAR-4 ovarian, 10.7 µM; in the test on OVCAR-8 ovarian it was 9.59 µM. For the same molecule, the TGI with SF-295 CNS worked out at 4.76 µM; with SK-MEL-2 melanoma it was 5.36 µM.

On to `COc1cccc2c1-c1nc(N)c3c(OC)cccc3c1C2=O`, for which the TGI was > 100 µM in the test with A498 renal; 58.5 µM in the test with HOP-62 NSCLC; > 100 µM in the test on M14 melanoma; > 100 µM in the test with NCI-H522 lung; > 100 µM in the test with OVCAR-4 ovarian; > 100 µM in the test with OVCAR-8 ovarian. The TGI with SF-295 CNS and with SK-MEL-2 melanoma was > 100 µM in each case.

Turning to `CN=C(N)c1ccc(N=C(N)c2ccc(-c3ccc(C(N)=Nc4ccc(C(N)=NC)cc4)cc3)cc2)cc1`, the GI50 with A498 renal was > 100000 nM; in the test on HOP-62 NSCLC it was > 100000 nM; with M14 melanoma, 82200 nM; in the test on NCI-H522 lung it was 18400 nM; in the test on OVCAR-4 ovarian, > 100000 nM; in the test on OVCAR-8 ovarian, 52.1 µM. Besides, the values for the GI50 with SF-295 CNS and in the test on SK-MEL-2 melanoma were 41100 nM and 35.1 µM, respectively. Also, the TGI with A498 renal, with HOP-62 NSCLC, in the test on M14 melanoma, with NCI-H522 lung, with OVCAR-4 ovarian and in the test with OVCAR-8 ovarian was > 100 µM in each case. The TGI in the test on SF-295 CNS and in the test with SK-MEL-2 melanoma was > 100 µM in each case.
